Test results reported in ChEMBL document CHEMBL1909046, “DrugMatrix in vitro pharmacology data”.

Columns and labels:
[1] = molecular target: T1, Neuropeptide Y receptor type 2 (Homo sapiens, UniProt P49146); type: cell membranes, Membrane; details: kan-ts; further: in other assays of this panel Not Active means under 50% inhibition at 10 µM
T1 sequence (P49146 whole entry): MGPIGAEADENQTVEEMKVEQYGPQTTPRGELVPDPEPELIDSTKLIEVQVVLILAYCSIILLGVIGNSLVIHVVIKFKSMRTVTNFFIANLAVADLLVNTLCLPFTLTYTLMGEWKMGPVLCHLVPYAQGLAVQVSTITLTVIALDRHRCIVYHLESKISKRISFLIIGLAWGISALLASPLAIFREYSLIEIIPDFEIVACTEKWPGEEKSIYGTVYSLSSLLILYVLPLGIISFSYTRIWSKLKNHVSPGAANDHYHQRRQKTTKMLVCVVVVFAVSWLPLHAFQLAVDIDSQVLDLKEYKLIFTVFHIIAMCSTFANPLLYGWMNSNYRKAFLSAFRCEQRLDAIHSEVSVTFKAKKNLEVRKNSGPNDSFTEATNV

[2] = DRUGMATRIX: Glutamate, AMPA radioligand binding (ligand: [3H] AMPA); type: cell membranes, Rattus norvegicus, Wistar, Cerebral cortex, Membrane; details: Not Active = under 50% inhibition at 10 µM
Glucocorticoid receptor = molecular target: T2, Glucocorticoid receptor (Homo sapiens, UniProt P04150); details: hela s3; further: in other assays of this panel Not Active means under 50% inhibition at 10 µM
T2 sequence (P04150 whole entry): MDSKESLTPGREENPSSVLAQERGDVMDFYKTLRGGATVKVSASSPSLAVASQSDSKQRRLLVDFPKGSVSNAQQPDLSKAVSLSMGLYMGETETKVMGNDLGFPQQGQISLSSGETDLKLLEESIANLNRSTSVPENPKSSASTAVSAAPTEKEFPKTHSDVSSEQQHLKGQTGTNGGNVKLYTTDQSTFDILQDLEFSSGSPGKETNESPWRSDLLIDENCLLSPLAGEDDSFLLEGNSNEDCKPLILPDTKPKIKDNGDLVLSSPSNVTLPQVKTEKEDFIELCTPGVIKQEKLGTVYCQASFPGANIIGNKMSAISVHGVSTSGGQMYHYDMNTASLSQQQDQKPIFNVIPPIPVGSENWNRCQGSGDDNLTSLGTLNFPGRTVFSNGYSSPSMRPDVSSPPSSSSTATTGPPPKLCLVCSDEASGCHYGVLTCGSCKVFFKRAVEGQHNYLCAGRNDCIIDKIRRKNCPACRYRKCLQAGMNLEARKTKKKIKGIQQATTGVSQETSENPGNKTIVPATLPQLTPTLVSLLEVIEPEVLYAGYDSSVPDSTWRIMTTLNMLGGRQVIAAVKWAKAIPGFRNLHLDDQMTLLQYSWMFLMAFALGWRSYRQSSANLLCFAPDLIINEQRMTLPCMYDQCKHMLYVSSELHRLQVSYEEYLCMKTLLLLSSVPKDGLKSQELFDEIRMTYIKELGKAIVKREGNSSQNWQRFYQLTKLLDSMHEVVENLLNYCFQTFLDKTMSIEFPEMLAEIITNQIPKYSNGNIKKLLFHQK

[3] = molecular target: T3, Alpha-1D adrenergic receptor (Homo sapiens, UniProt P25100); type: cell membranes, HEK293, Membrane; further: in other assays of this panel Not Active means under 50% inhibition at 10 µM
T3 sequence (P25100 whole entry): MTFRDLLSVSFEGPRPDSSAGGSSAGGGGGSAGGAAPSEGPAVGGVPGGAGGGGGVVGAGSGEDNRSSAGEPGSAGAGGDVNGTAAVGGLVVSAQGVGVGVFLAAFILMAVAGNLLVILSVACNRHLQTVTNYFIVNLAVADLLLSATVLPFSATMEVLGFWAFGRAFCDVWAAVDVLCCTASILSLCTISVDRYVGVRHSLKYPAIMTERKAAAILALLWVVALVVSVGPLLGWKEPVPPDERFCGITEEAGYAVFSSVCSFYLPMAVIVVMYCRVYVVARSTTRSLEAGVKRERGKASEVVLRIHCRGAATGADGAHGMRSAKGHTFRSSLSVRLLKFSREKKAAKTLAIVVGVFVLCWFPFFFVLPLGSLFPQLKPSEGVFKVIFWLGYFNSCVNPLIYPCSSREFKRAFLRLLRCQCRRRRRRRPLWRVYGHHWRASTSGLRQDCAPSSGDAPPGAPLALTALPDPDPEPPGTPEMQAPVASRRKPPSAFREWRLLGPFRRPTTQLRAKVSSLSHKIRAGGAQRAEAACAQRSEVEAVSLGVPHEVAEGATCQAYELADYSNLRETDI

[4] = molecular target: Mitogen-activated protein kinase 3 (Homo sapiens, UniProt P27361); assay: DRUGMATRIX: Protein Serine/Threonine Kinase, ERK1 enzyme inhibition (substrate: Myelin Basic Protein); parameters: species or system Escherichia coli; details: Not Active = under 50% inhibition at 10 µM
[5] = molecular target: T4, Alpha-1B adrenergic receptor (Rattus norvegicus, UniProt P15823); assay: DRUGMATRIX: Alpha-1B adrenergic receptor radioligand binding (ligand: prazosin); type: cell membranes, Wistar, Liver, Membrane; details: Not Active = under 50% inhibition at 10 µM
T4 sequence (P15823 whole entry): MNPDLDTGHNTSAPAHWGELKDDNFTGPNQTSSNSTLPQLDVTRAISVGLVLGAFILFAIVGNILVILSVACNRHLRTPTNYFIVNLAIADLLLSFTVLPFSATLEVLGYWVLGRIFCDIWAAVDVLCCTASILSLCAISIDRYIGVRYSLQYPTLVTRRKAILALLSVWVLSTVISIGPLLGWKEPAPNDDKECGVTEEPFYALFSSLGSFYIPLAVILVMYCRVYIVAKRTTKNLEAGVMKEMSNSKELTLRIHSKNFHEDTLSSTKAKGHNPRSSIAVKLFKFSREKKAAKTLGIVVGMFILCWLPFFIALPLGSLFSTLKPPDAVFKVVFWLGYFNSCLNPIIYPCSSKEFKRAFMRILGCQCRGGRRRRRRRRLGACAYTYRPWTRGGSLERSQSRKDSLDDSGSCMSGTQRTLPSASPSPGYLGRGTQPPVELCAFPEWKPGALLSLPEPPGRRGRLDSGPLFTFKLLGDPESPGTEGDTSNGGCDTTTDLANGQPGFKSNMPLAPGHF

[6] = molecular target: Tyrosine-protein kinase Lck (Homo sapiens, UniProt P06239); assay: DRUGMATRIX: Protein Tyrosine Kinase, LCK enzyme inhibition (substrate: Poly(Glu:Tyr)); type: cell-based, Insect cells; details: Not Active = under 50% inhibition at 10 µM
Vasopressin V1a receptor = Vasopressin V1a receptor (Homo sapiens, UniProt P37288); type: cell membranes, Membrane; details: hek293; further: in other assays of this panel Not Active means under 50% inhibition at 10 µM
[7] = molecular target: Beta-3 adrenergic receptor (Homo sapiens, UniProt P13945); assay: DRUGMATRIX: Adrenergic beta3 radioligand binding (ligand: [125I] Cyanopindolol); type: cell membranes, HEK293, Membrane; details: Not Active = under 50% inhibition at 10 µM
[8] = molecular target: 5-hydroxytryptamine receptor 2B (Homo sapiens, UniProt P41595); type: cell membranes, CHO-K1, Membrane; further: in other assays of this panel Not Active means under 50% inhibition at 10 µM
[9] = molecular target: Receptor tyrosine-protein kinase erbB-2 (Homo sapiens, UniProt P04626); assay: biochemical; type: cell-based, Insect cells
[10] = DRUGMATRIX: GABAA, Chloride Channel, TBOB radioligand binding (ligand: [3H] TBOB); type: cell membranes, Rattus norvegicus, Wistar, Cerebral cortex, Membrane; details: Not Active = under 50% inhibition at 10 µM

Sequence of 5-hydroxytryptamine receptor 2B (P41595 whole entry): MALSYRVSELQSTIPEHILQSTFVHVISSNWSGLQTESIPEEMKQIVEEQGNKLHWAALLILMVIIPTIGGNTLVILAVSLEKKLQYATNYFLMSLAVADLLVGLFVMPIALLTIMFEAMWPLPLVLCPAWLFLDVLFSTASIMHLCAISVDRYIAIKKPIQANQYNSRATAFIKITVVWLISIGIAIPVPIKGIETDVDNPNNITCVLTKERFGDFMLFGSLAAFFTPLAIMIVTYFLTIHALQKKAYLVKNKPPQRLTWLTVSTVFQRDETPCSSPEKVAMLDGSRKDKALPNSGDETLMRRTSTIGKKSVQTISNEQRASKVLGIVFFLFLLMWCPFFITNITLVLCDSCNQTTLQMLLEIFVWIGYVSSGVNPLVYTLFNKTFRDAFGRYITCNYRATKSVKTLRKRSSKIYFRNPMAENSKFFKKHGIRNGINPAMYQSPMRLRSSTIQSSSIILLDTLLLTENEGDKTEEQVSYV
Sequence of Receptor tyrosine-protein kinase erbB-2 (P04626 whole entry): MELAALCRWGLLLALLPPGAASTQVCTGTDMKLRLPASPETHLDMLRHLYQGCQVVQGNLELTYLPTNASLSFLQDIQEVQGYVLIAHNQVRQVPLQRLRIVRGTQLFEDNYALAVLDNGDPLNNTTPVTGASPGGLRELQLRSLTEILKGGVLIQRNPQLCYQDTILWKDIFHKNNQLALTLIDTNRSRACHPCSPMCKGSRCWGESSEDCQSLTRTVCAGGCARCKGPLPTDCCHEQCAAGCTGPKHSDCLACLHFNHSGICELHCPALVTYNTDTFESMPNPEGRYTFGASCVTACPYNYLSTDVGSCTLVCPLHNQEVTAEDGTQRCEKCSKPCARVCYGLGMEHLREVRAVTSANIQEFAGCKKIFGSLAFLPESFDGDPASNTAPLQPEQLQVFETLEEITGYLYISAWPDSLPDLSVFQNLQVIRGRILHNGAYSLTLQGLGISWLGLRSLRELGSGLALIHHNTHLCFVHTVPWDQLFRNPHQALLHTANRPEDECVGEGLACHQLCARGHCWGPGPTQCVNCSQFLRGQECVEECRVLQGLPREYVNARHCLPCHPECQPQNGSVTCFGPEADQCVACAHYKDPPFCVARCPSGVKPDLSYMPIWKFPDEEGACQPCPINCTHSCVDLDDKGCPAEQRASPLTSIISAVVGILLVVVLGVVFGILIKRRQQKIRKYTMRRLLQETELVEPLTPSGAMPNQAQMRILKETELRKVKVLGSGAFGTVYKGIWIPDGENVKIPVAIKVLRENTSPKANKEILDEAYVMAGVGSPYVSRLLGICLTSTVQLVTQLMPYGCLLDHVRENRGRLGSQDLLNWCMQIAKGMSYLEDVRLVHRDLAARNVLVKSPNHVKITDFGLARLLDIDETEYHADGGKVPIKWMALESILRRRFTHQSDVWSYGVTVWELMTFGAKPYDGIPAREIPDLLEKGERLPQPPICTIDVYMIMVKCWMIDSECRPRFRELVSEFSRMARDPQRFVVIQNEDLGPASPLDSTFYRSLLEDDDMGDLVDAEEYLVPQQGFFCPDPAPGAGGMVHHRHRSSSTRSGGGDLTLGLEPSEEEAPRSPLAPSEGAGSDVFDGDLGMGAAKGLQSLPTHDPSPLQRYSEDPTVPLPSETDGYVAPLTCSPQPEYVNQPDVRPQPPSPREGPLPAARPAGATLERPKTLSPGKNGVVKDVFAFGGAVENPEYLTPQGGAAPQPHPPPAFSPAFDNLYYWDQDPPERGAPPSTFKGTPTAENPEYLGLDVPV
Sequence of Tyrosine-protein kinase Lck (P06239 whole entry): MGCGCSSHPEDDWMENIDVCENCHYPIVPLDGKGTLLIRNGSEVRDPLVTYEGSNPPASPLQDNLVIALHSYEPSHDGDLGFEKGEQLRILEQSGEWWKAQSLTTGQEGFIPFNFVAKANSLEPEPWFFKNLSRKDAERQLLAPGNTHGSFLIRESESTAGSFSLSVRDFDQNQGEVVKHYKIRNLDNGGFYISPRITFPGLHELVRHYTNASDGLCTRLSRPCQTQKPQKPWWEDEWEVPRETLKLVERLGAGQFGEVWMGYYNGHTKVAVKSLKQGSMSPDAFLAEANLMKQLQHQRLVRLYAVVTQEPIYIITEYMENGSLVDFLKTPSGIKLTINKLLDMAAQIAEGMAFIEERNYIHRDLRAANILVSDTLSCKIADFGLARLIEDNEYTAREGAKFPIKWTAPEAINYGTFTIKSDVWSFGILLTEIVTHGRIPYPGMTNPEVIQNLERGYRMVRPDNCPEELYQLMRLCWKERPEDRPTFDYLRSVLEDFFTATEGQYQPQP
Sequence of Beta-3 adrenergic receptor (P13945 whole entry): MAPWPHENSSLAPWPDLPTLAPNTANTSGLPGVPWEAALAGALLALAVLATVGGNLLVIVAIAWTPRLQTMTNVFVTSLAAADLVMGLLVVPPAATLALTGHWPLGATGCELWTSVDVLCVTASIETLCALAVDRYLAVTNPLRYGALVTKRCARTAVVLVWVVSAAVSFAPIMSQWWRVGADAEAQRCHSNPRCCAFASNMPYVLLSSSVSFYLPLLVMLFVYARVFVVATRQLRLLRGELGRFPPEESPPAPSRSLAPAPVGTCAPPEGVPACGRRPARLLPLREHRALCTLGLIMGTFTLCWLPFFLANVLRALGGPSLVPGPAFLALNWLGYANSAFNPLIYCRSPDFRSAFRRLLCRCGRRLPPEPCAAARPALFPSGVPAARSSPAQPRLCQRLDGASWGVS
Sequence of Mitogen-activated protein kinase 3 (P27361 whole entry): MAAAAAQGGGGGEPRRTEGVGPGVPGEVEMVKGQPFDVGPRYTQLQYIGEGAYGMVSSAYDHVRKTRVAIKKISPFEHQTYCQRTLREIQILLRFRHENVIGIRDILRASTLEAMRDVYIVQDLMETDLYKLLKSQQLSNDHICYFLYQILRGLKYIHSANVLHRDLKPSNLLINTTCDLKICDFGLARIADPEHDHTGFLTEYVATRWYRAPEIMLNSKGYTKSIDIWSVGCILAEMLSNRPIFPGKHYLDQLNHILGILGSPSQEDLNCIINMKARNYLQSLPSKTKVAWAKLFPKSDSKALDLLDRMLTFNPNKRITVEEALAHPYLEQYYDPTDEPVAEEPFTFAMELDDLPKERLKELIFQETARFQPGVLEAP
Sequence of Vasopressin V1a receptor (P37288 whole entry): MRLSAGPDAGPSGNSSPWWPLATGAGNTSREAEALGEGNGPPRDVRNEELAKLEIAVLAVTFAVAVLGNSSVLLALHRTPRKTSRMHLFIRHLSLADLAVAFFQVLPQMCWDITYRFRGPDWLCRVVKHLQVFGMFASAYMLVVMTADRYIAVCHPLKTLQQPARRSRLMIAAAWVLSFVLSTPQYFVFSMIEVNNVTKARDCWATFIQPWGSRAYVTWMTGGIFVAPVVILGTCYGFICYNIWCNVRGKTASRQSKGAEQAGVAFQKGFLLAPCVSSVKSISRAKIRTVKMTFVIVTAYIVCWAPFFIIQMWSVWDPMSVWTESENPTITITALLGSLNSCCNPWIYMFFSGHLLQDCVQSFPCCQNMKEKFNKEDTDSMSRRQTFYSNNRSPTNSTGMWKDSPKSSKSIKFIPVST

Brc1ccccc1 [BROMOBENZENE]
Not Active: IC50 [1] | IC50 [2] | Ki [2] | IC50 (Glucocorticoid receptor) | IC50 ([3]; hek293) | IC50 [4] | IC50 [5] | IC50 ([6]; insect cells) | IC50 (Vasopressin V1a receptor) | IC50 ([7]; hek293) | IC50 ([8]; cho-k1) | IC50 ([9]; insect cells) | IC50 [10] | Ki [10]

COc1ccc2cc(CC(=O)O)ccc2c1
Not Active: IC50 [1] | IC50 [2] | Ki [2] | IC50 (Glucocorticoid receptor) | IC50 ([3]; hek293) | IC50 [4] | IC50 [5] | IC50 ([6]; insect cells) | IC50 (Vasopressin V1a receptor) | IC50 ([7]; hek293) | IC50 ([8]; cho-k1) | IC50 ([9]; insect cells) | IC50 [10] | Ki [10]

CC[N+](CC)(CC)CCOc1cccc(OCC[N+](CC)(CC)CC)c1OCC[N+](CC)(CC)CC.[I-].[I-].[I-] [GALLAMINE TRIETHIODIDE]
Not Active: IC50 [1] | IC50 [2] | Ki [2] | IC50 (Glucocorticoid receptor) | IC50 ([3]; hek293) | IC50 [4] | IC50 [5] | IC50 ([6]; insect cells) | IC50 (Vasopressin V1a receptor) | IC50 ([7]; hek293) | IC50 ([8]; cho-k1) | IC50 ([9]; insect cells) | IC50 [10] | Ki [10]

CC(C)NC[C@H](O)COc1cccc2[nH]ccc12
Not Active: IC50 [1] | IC50 [2] | Ki [2] | IC50 (Glucocorticoid receptor) | IC50 ([3]; hek293) | IC50 [4] | IC50 [5] | IC50 ([6]; insect cells) | IC50 (Vasopressin V1a receptor) | IC50 ([8]; cho-k1) | IC50 ([9]; insect cells) | IC50 [10] | Ki [10]

Oc1c(Cl)cc(Cl)cc1Sc1cc(Cl)cc(Cl)c1O [BITHIONOL]
Not Active: IC50 [1] | IC50 [2] | Ki [2] | IC50 (Glucocorticoid receptor) | IC50 ([3]; hek293) | IC50 [4] | IC50 [5] | IC50 (Vasopressin V1a receptor) | IC50 ([7]; hek293) | IC50 [10] | Ki [10]
2150 nM: IC50 ([9]; read-out: IC50)
2260 nM: IC50 ([6]; read-out: IC50)

CC(=O)OCC(=O)[C@@]1(OC(C)=O)[C@@H](C)C[C@H]2[C@@H]3C[C@H](F)C4=CC(=O)C=C[C@]4(C)[C@@]3(F)[C@@H](O)C[C@@]21C [DIFLORASONE DIACETATE]
Not Active: IC50 [1] | IC50 [2] | Ki [2] | IC50 ([3]; hek293) | IC50 [4] | IC50 [5] | IC50 ([6]; insect cells) | IC50 (Vasopressin V1a receptor) | IC50 ([7]; hek293) | IC50 ([8]; cho-k1) | IC50 ([9]; insect cells) | IC50 [10] | Ki [10]

CC1COc2c(N3CCN(C)CC3)c(F)cc3c(=O)c(C(=O)O)cn1c23 (stereo unspecified) [OFLOXACIN]
Not Active: IC50 [1] | IC50 [2] | Ki [2] | IC50 ([3]; hek293) | IC50 [4] | IC50 [5] | IC50 ([6]; insect cells) | IC50 (Vasopressin V1a receptor) | IC50 ([7]; hek293) | IC50 ([8]; cho-k1) | IC50 ([9]; insect cells) | IC50 [10] | Ki [10]

CCCCCCCCCc1ccc(O)cc1 [4-NONYLPHENOL]
3140 nM: Ki ([7]; read-out: Ki)
Not Active: IC50 [1] | IC50 [2] | Ki [2] | IC50 ([3]; hek293) | IC50 [4] | IC50 [5] | IC50 ([6]; insect cells) | IC50 (Vasopressin V1a receptor) | IC50 ([8]; cho-k1) | IC50 ([9]; insect cells) | IC50 [10] | Ki [10]
4190 nM: IC50 ([7]; read-out: IC50)

C[C@]12CCC(=O)C=C1CC[C@@H]1[C@@H]2C(=O)C[C@@]2(C)[C@H]1CC[C@]2(O)C(=O)CO [CORTISONE]
Not Active: IC50 [1] | IC50 [2] | Ki [2] | IC50 ([3]; hek293) | IC50 [4] | IC50 [5] | IC50 ([6]; insect cells) | IC50 (Vasopressin V1a receptor) | IC50 ([7]; hek293) | IC50 ([8]; cho-k1) | IC50 ([9]; insect cells) | IC50 [10] | Ki [10]

Cc1ccccc1N1CCN(CCc2nnc3n2CCCC3)CC1 [DAPIPRAZOLE]
8.31 nM: IC50 ([3]; read-out: IC50)
672 nM: Ki ([8]; read-out: Ki)
4.09 nM: Ki ([3]; read-out: Ki)
Not Active: IC50 [1] | IC50 [2] | Ki [2] | IC50 (Glucocorticoid receptor) | IC50 [4] | IC50 ([6]; insect cells) | IC50 (Vasopressin V1a receptor) | IC50 ([7]; hek293) | IC50 ([9]; insect cells) | IC50 [10] | Ki [10]
1060 nM: IC50 ([8]; read-out: IC50)
